From patent US20220402950A1, “SUBSTITUTED BENZIMIDAZOLES AS PAD4 INHIBITORS” (BRISTOL-MYERS SQUIBB COMPANY, priority 2018, published 2022)
Like-named read-outs stand apart in the source and are kept apart here.

Target: human PAD4 (hPAD4) (Homo sapiens, UniProt Q9UM07)
Assay: RFMS Human PAD4 Functional Assay
Format: biochemical
Settings: 5 nM hPAD4, 250 μM BAEE
Method in brief: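 RapidFire ESI-MS quantification, normalised to a modified-citrulline internal standard, after phenyl glyoxal (final 4 mM) derivatisation of the TCA-quenched reaction. The enzyme (10 nM) sat 30 min with compound (up to 50 μM final) before 500 μM BAEE (as added) started a 90 min, 37 °C reaction. Buffer: HEPES pH 7.5, 50 μM calcium, 5 μM TPEN.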

[1] = hPAD4 RFMS IC50, human PAD4, rapid-fire mass spectrum (RFMS) assay
[2] = human PAD4, rapid-fire mass spectrum (RFMS) assay, read-out: hPAD4 RFMS IC50

Sequence of human PAD4 (hPAD4) (Q9UM07 whole entry): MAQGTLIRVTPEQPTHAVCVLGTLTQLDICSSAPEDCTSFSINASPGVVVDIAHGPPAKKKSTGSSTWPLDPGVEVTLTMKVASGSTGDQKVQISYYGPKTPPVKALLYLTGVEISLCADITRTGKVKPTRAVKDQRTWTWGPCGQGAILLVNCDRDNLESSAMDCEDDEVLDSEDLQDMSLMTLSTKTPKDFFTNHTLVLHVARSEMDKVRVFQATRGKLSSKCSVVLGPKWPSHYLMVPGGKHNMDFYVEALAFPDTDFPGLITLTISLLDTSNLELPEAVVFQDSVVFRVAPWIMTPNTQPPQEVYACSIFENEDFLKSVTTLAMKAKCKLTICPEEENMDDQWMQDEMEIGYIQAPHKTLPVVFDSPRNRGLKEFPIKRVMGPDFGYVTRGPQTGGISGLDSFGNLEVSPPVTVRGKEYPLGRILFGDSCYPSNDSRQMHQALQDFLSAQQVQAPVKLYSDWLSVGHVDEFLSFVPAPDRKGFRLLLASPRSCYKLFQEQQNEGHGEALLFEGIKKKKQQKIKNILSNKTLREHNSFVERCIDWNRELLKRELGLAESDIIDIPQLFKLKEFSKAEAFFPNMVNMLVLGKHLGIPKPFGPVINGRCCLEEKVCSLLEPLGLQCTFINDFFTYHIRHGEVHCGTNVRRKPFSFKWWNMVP

| Structure (SMILES) | IC50 [1] [nM] | IC50 [2] [nM] |
| --- | --- | --- |
| COc1cc(C(=O)N2CC3CCC2[C@@H]3N)cc2nc(-c3cc4cccc(Nc5ccnc(C)c5)c4n3CC3CC3)n(C)c12 (stereo partly drawn) [Example 163, ((7R)-7-amino-2-azabicyclo[2.2.1]heptan-2-yl)(2-(1-(cyclopropylmethyl)-7-((2-methylpyridin-4-yl)amino)-1H-indol-2-yl)-7-methoxy-1-methyl-1H-benzo[d]imidazol-5-yl)methanone] | 58 | – |
| COc1cc(C(=O)N2C[C@H]3CC[C@@H]2[C@@H]3N)cc2nc(-c3cc4cccc(Nc5cnn(CC(F)(F)F)c5)c4n3CC3CC3)n(C)c12 [Example 165, ((1R,4R,7R)-7-amino-2-azabicyclo[2.2.1]heptan-2-yl)(2-(1-(cyclopropylmethyl)-7-((1-(2,2,2-trifluoroethyl)-1H-pyrazol-4-yl)amino)-1H-indol-2-yl)-7-methoxy-1-methyl-1H-benzo[d]imidazol-5-yl)methanone] | 75 | – |
| COc1cc(C(=O)N2CC3CCC2C3N)cc2nc(-c3cc4cccc(Nc5ccccc5P(C)(C)=O)c4n3CC3CC3)n(C)c12 (stereo not drawn) [Example 166, (7-amino-2-azabicyclo[2.2.1]heptan-2-yl)(2-(1-(cyclopropylmethyl)-7-((2-(dimethylphosphoryl)phe-nyl)amino)-1H-indol-2-yl)-7-methoxy-1-methyl-1H-benzo[d]imidazol-5-yl)methanone] | 171 | – |
| COc1cc(C(=O)N2CC3CCC2C3N)cc2nc(-c3cc4cccc(Nc5cnc(C#N)nc5)c4n3CC3CC3)n(C)c12 (stereo not drawn) [Example 167, 5-((2-(4-(7-amino-2-azabicyclo[2.2.1]heptane-2-carbonyl)-7-methoxy-1-methyl-1H-benzo[d]imidazol-2-yl)-1-(cyclopropyllmethyl)-1H-indol-7-yl)amino)pyrimidine-2-carbonitrile] | 138 | – |
| COc1cc(C(=O)N2C[C@H]3CC[C@@H]2[C@@H]3N)cc2nc(-c3cc4cccc(NC5CCN(C)CC5)c4n3CC3CC3)n(C)c12 [Example 170, ((1R,4R,7R)-7-amino-2-azabicyclo[2.2.1]heptan-2-yl)(2-(1-(cyclopropylmethyl)-7-((1-methylpiperidin-4-yl)amino)-1H-indol-2-yl)-7-methoxy-1-methyl-1H-benzo[d]imidazol-5-yl)methanone] | 59 | – |
| COc1cc(C(=O)N2C[C@H]3CC[C@@H]2[C@@H]3N)cc2nc(-c3cc4cccc(Nc5cnn(C)c5)c4n3CC3CC3)n(C)c12 [Example 171, ((1R,4R,7R)-7-amino-2-azabicyclo[2.2.1]heptan-2-yl)(2-(1-(cyclopropylmethyl)-7-((1-methyl-1H-pyrazol-4-yl)amino)-1H-indol-2-yl)-7-methoxy-1-methyl-1H-benzo[d]imidazol-5-yl)methanone] | 96 | – |
| COc1cc(C(=O)N2C[C@H]3CC[C@@H]2[C@@H]3N)cc2nc(-c3cc4cccc(Nc5c(C)n[nH]c5C)c4n3CC3CC3)n(C)c12 [Example 172, ((1R,4R,7R)-7-amino-2-azabicyclo[2.2.1]heptan-2-yl)(2-(1-(cyclopropylmethyl)-7-((3,5-dimethyl-1H-pyrazol-4-yl)amino)-1H-indol-2-yl)-7-methoxy-1-methyl-1H-benzo[d]imidazol-5-yl)methanone] | 43 | – |
| COc1cc(C(=O)N2C[C@H]3CC[C@@H]2[C@@H]3N)cc2nc(-c3cc4cccc(Nc5cn(C)nc5C)c4n3CC3CC3)n(C)c12 [Example 173, ((1R,4R,7R)-7-amino-2-azabicyclo[2.2.1]heptan-2-yl)(2-(1-(cyclopropylmethyl)-7-((1,3-dimethyl-1H-pyrazol-4-yl)amino)-1H-indol-2-yl)-7-methoxy-1-methyl-1H-benzo[d]imidazol-5-yl)methanone] | 42 | – |
| COc1cc(C(=O)N2C[C@H]3CC[C@@H]2[C@@H]3N)cc2nc(-c3cc4cccc(Nc5c(C)nn(C)c5C)c4n3CC3CC3(Cl)Cl)n(C)c12 (stereo partly drawn) [Example 176, ((1R,4R,7R)-7-amino-2-azabicyclo[2.2.1]heptan-2-yl)(2-(1-((2,2-dichlorocyclopropyl)meth-yl)-7-((1,3,5-trimethyl-1H-pyrazol-4-yl)amino)-1H-indol-2-yl)-7-methoxy-1-methyl-1H-benzo[d]imidazol-5-yl)methanone] | 76 | – |
| COc1cc(C(=O)N2C[C@H]3CC[C@@H]2[C@@H]3N)cc2nc(-c3cc4cccc(Nc5cn(C)nc5C)c4n3CC3CC3C)n(C)c12 (stereo partly drawn) [Example 177, ((1R,4R,7R)-7-amino-2-azabicyclo[2.2.1]heptan-2-yl)(2-(7-((1,3-dimethyl-1H-pyrazol-4-yl)amino)-1-((2-methylcyclopropyl)meth-yl)-1H-indol-2-yl)-7-methoxy-1-methyl-1H-benzo[d]imidazol-5-yl)methanone] | 40 | – |
| COc1cc(C(=O)N2C[C@H]3CC[C@@H]2[C@@H]3N)cc2nc(-c3cc4cccc(-c5ccccc5CO)c4n3CC3CC3)n(C)c12 [Example 181, ((1R,4R,7R)-7-amino-2-azabicyclo[2.2.1]heptan-2-yl)(2-(1-(cyclopropylmethyl)-7-(2-(hydroxymethyl)phenyl)-1H-indol-2-yl)-7-methoxy-1-methyl-1H-benzo[d]imidazol-5-yl)methanone] | – | 127 |
| COc1cc(C(=O)N2C[C@H]3CC[C@@H]2[C@@H]3N)cc2nc(-c3cc4cccc(C#N)c4n3CC3CC3)n(C)c12 [Example 183, 2-(5-((1R,4R,7R)-7-amino-2-azabicyclo[2.2.1]heptane-2-carbonyl)-7-methoxy-1-methyl-1H-benzo[d]imidazol-2-yl)-1-(cyclopropylmethyl)-1H-indole-7-carbonitrile] | – | 128 |
| COc1cc(C(=O)N2C[C@H](N)C[C@@H](F)C2)cc2nc(-c3cc4cccc(OC)c4n3CC3CC3)n(C)c12 [Example 185, ((3R,5R)-3-amino-5-fluoropiperidin-1-yl)(2-(1-(cyclopropylmethyl)-7-methoxy-1H-indol-2-yl)-7-methoxy-1-methyl-1H-benzo[d]imidazol-5-yl)methanone] | – | 133 |

The remaining lines, values ahead:

| IC50 [1] [nM] | IC50 [2] [nM] | Structure (SMILES) |
| --- | --- | --- |
| 153 | – | COc1cc(C(=O)N2CC3CCC2[C@@H]3N)cc2nc(-c3cc4cccc(Nc5ccc(CO)cc5)c4n3CC3CC3)n(C)c12 (stereo partly drawn) [Example 164, ((7R)-7-amino-2-azabicyclo[2.2.1]heptan-2-yl)(2-(1-(cyclopropylmethyl)-7-((4-(hydroxymethyl)phenyl)a-mino)-1H-indol-2-yl)-7-methoxy-1-methyl-1H-benzo[d]imidazol-5-yl)methanone] |
| 198 | – | COc1cc(C(=O)N2C[C@H]3CC[C@@H]2[C@@H]3N)cc2nc(-c3cc4cccc(NCCC(C)(C)O)c4n3CC3CC3)n(C)c12 [Example 169, ((1R,4R,7R)-7-amino-2-azabicyclo[2.2.1]heptan-2-yl)(2-(1-(cyclopropylmethyl)-7-((3-hydroxy-3-methylbutyl)amino)-1H-indol-2-yl)-7-methoxy-1-methyl-1H-benzo[d]imidazol-5-yl)methanone] |
| 41 | – | COc1cc(C(=O)N2C[C@H]3CC[C@@H]2[C@@H]3N)cc2nc(-c3cc4cccc(Nc5c(C)nn(C)c5C)c4n3CC3CC3)n(C)c12 [Example 174, ((1R,4R,7R)-7-amino-2-azabicyclo[2.2.1]heptan-2-yl)(2-(1-(cyclopropylmethyl)-7-((1,3,5-trimethyl-1H-pyrazol-4-yl)amino)-1H-indol-2-yl)-7-methoxy-1-methyl-1H-benzo[d]imidazol-5-yl)methanone] |
| 66 | – | COc1cc(C(=O)N2C[C@H]3CC[C@@H]2[C@@H]3N)cc2nc(-c3cc4cccc(Nc5cnn(CC(F)F)c5)c4n3CC3CC3)n(C)c12 [Example 175, ((1R,4R,7R)-7-amino-2-azabicyclo[2.2.1]heptan-2-yl)(2-(1-(cyclopropylmethyl)-7-((1-(2,2-difluoroethyl)-1H-pyrazol-4-yl)amino)-1H-indol-2-yl)-7-methoxy-1-methyl-1H-benzo[d]imidazol-5-yl)methanone] |
| 56 | – | COc1cc(C(=O)N2C[C@H]3CC[C@@H]2[C@@H]3N)cc2nc(-c3cc4cccc(Nc5cn(C)nc5C)c4n3CC3CC3(F)F)n(C)c12 (stereo partly drawn) [Example 178, ((1R,4R,7R)-7-amino-2-azabicyclo[2.2.1]heptan-2-yl)(2-(1-((2,2-difluorocyclopropyl)meth-yl)-7-((1,3-dimethyl-1H-pyrazol-4-yl)amino)-1H-indol-2-yl)-7-methoxy-1-methyl-1H-benzo[d]imidazol-5-yl)methanone] |
| 24 | – | COc1cc(C(=O)N2C[C@H]3CC[C@@H]2[C@@H]3N)cc2nc(-c3cc4cccc(Nc5cn(C)nc5C)c4n3CC3CC3(Cl)Cl)n(C)c12 (stereo partly drawn) [Example 179, ((1R,4R,7R)-7-amino-2-azabicyclo[2.2.1]heptan-2-yl)(2-(1-((2,2-dichlorocyclopropyl)meth-yl)-7-((1,3-dimethyl-1H-pyrazol-4-yl)amino)-1H-indol-2-yl)-7-methoxy-1-methyl-1H-benzo[d]imidazol-5-yl)methanone] |
| 27 | – | COc1cc(C(=O)N2C[C@H]3CC[C@@H]2[C@@H]3N)cc2nc(-c3cc4cccc(Nc5c(C)nn(C)c5C)c4n3CC3CC3C)n(C)c12 (stereo partly drawn) [Example 180, ((1R,4R,7R)-7-amino-2-azabicyclo[2.2.1]heptan-2-yl)(7-methoxy-1-methyl-2-(1-((2-methylcyclopropyl)meth-yl)-7-((1,3,5-trimethyl-1H-pyrazol-4-yl)amino)-1H-indol-2-yl)-1H-benzo[d]imidazol-5-yl)methanone] |
| – | 74 | COc1cc(C(=O)N2C[C@H]3CC[C@@H]2[C@@H]3N)cc2nc(-c3cc4cccc(C(N)=O)c4n3CC3CC3)n(C)c12 [Example 184, 2-(5-((1R,4R,7R)-7-Amino-2-azabicyclo[2.2.1]heptane-2-carbonyl)-7-methoxy-1-methyl-1H-benzo[d]imidazol-2-yl)-1-(cyclopropylmethyl)-1H-indole-7-carboxamide] |
